The results in this text go back to US9133104B2 (Chroma Therapeutics Ltd., priority 2005, dated 2015).

The subject of one experiment is HUT cancer cell line. As to the kind of experiment: Cell inhibition assay (SRB cell viability), HUT. Particulars: HUT cells, 72 h, IC50 range. The experiment is classed as cell-based. The method, boiled down:
(§1)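 Log-phase Hela, U937 and HUT cells were seeded at 1000 cells/well, grown 24 h, then exposed to compound (20 uM final) for 72 h. Viability was read by sulphorhodamine B staining and expressed as % inhibition relative to DMSO control. IC50 values came from sigmoidal variable-slope fits of eight concentrations.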

Another experiment concerns Hela cancer cell line. In words: Cell inhibition assay (SRB cell viability), Hela. It is filed as cell-based. As to conditions: Homo sapiens, HeLa, 72 h, Hela cells, IC50 range. The method, boiled down:
as §1

A further experiment has as its system U937 cancer cell line. As to the kind of experiment: Cell inhibition assay (SRB cell viability), U937. It is filed as cell-based. Particulars: Homo sapiens, U-937, U937 cells, 72 h, IC50 range. The method, boiled down: as §1
Experiment [1] concerns the target T1, histone deacetylase activity (HeLa nuclear extract).
T1 construct: Histone deacetylase activity from crude nuclear extract derived from HeLa cells was used for screening
In words: HDAC fluorescent activity assay (Biomol Fluor de Lys), HeLa nuclear extract. It is filed as biochemical. Particulars: Fluor de Lys substrate, IC50 range. The method, boiled down: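 Crude HeLa nuclear extract (20 mM Hepes, 100 mM KCl, 0.2 mM EDTA, 0.5 mM DTT, 0.2 mM PMSF, 20% glycerol) incubated with acetyl-lysine Fluor de Lys substrate ± inhibitor; developer generates fluorophore. Background-subtracted % of vehicle control; IC50 from eight-point variable-slope sigmoidal fit.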

A word on the IC50: it is the concentration that inhibits the measured activity by half.

Consider `CCOC(=O)[C@H](Cc1ccccc1)NC(=O)[C@@H]1Cc2ccccc2CN1C(=O)CCCCCCC(=O)NO` [Compound 47, (S)-2-{[(S)-2-(7-Hydroxycarbamoyl-heptanoyl)-1,2,3,4-tetrahydro-isoquinoline-3-carbonyl]-amino}-3-phenyl-propionic acid ethyl ester], for which the IC50 is 330 to 3300 nM with HUT cancer cell line, more than 3300 nM with Hela cancer cell line, 330 to 3300 nM with U937 cancer cell line and 101 to 1000 nM in experiment [1].

Take `O=C(CCCCCCC(=O)N1Cc2ccccc2C[C@H]1C(=O)N[C@@H](Cc1ccccc1)C(=O)O)NO` [Compound 48, (S)-2-{[(S)-2-(7-Hydroxycarbamoyl-heptanoyl)-1,2,3,4-tetrahydro-isoquinoline-3-carbonyl]-amino}-3-phenyl-propionic acid]: the IC50 is 330 to 3300 nM with HUT cancer cell line, more than 3300 nM with Hela cancer cell line, 330 to 3300 nM with U937 cancer cell line and more than 1000 nM in experiment [1].

Consider `CCOC(=O)[C@H](CC(C)C)NC(=O)[C@@H]1Cc2ccccc2CN1C(=O)CCCCCCC(=O)NO` [Compound 50, (S)-2-{[(S)-2-(7-Hydroxycarbamoyl-heptanoyl)-1,2,3,4-tetrahydro-isoquinoline-3-carbonyl]-amino}-4-methyl-pentanoic acid ethyl ester], for which the IC50 with HUT cancer cell line is 330 to 3300 nM; in the experiment with Hela cancer cell line it was more than 3300 nM; in the experiment with U937 cancer cell line, 330 to 3300 nM; in experiment [1], more than 1000 nM.

Regarding `CC(C)C[C@H](NC(=O)[C@@H]1Cc2ccccc2CN1C(=O)CCCCCCC(=O)NO)C(=O)OC1CCCC1` [Compound 51, (S)-2-{[(S)-2-(7-Hydroxycarbamoyl-heptanoyl)-1,2,3,4-tetrahydro-isoquinoline-3-carbonyl]-amino}-4-methyl-pentanoic acid cyclopentyl ester], the IC50 in the experiment on HUT cancer cell line was 330 to 3300 nM; in the experiment on Hela cancer cell line it was more than 3300 nM; in the experiment on U937 cancer cell line, 330 to 3300 nM; in experiment [1], 101 to 1000 nM.

`O=C(CCCCCCC(=O)N1CCCC1C(=O)N[C@H](C(=O)OC1CCCC1)c1ccccc1)NO` (stereo partly drawn) [Compound 53, (S)-{[1-(7-Hydroxycarbamoyl-heptanoyl)-pyrrolidine-2-carbonyl]-amino}-phenyl-acetic acid cyclopentyl ester]: the IC50 was more than 3300 nM with HUT cancer cell line, more than 3300 nM with Hela cancer cell line, more than 3300 nM in the experiment on U937 cancer cell line and more than 1000 nM in experiment [1].

Regarding `CCOC(=O)[C@H](Cc1ccccc1)NC(=O)C1CCCN1C(=O)CCCCCCC(=O)NO` (stereo partly drawn) [Compound 55, (S)-2-{[1-(7-Hydroxycarbamoyl-heptanoyl)-pyrrolidine-2-carbonyl]-amino}-3-phenyl-propionic acid ethyl ester], the half-inhibitory concentration (IC50) in the experiment with HUT cancer cell line was more than 3300 nM; in the experiment with Hela cancer cell line it was more than 3300 nM; in the experiment on U937 cancer cell line, more than 3300 nM; in experiment [1], more than 1000 nM.

In the case of `O=C(CCCCCCC(=O)N1CCCC1C(=O)N[C@@H](Cc1ccccc1)C(=O)OC1CCCC1)NO` (stereo partly drawn) [Compound 56, (S)-2-{[1-(7-Hydroxycarbamoyl-heptanoyl)-pyrrolidine-2-carbonyl]-amino}-3-phenyl-propionic acid cyclopentyl ester], the IC50 in the experiment on HUT cancer cell line was more than 3300 nM; in the experiment with Hela cancer cell line it was more than 3300 nM; in the experiment with U937 cancer cell line it was more than 3300 nM; in experiment [1], more than 1000 nM.

Regarding `O=C(CCCCCCC(=O)N1Cc2[nH]c3ccccc3c2[C@H](C(=O)N[C@@H](Cc2ccccc2)C(=O)OC2CCCC2)C1)NO` [Compound 58, (S)-2-{[(S)-2-(7-Hydroxycarbamoyl-heptanoyl)-2,3,4,9-tetrahydro-1H-beta-carboline-4-carbonyl]-amino}-3-phenyl-propionic acid cyclopentyl ester], the IC50 was in the range of 330 to 3300 nM with HUT cancer cell line, 330 to 3300 nM in the experiment with Hela cancer cell line, 330 to 3300 nM in the experiment on U937 cancer cell line and 101 to 1000 nM in experiment [1].

With `O=C(CCCCCCC(=O)Nc1cccc(C(=O)N[C@H](C(=O)OC2CCCC2)c2ccccc2)c1)NO` [Compound 60, (S)-[3-(7-Hydroxycarbamoyl-heptanoylamino)-benzoylamino]-phenyl-acetic acid cyclopentyl ester], the IC50 in the experiment with HUT cancer cell line was in the range of 330 to 3300 nM; in the experiment with Hela cancer cell line it was 330 to 3300 nM; in the experiment on U937 cancer cell line, 330 to 3300 nM; in experiment [1], 101 to 1000 nM.

Regarding `CC(C)C[C@H](NC(=O)c1cccc(NC(=O)CCCCCCC(=O)NO)c1)C(=O)OC1CCCC1` [Compound 62, (S)-2-[3-(7-Hydroxycarbamoyl-heptanoylamino)-benzoylamino]-4-methyl-pentanoic acid cyclopentyl ester], the half-maximal inhibitory concentration (IC50) with HUT cancer cell line was 330 to 3300 nM; with Hela cancer cell line it was more than 3300 nM; in the experiment on U937 cancer cell line, more than 3300 nM; in experiment [1], 101 to 1000 nM.

Regarding `CCOC(=O)[C@H](Cc1ccccc1)NCc1cncc(NC(=O)CCCCCCC(=O)NO)c1` [Compound 66, (S)-2-{[5-(7-Hydroxycarbamoyl-heptanoylamino)-pyridin-3-ylmethyl]-amino}-3-phenyl-propionic acid ethyl ester], the IC50 in the experiment on HUT cancer cell line was more than 3300 nM; in the experiment with Hela cancer cell line, more than 3300 nM; in the experiment on U937 cancer cell line it was more than 3300 nM; in experiment [1], 101 to 1000 nM.

In the case of `CC(C)(C)OC(=O)[C@H](Cc1ccccc1)NCc1cncc(NC(=O)CCCCCCC(=O)NO)c1` [Compound 68, (S)-2-{[5-(7-Hydroxycarbamoyl-heptanoylamino)-pyridin-3-ylmethyl]-amino}-3-phenyl-propionic acid tert-butyl ester], the IC50 in the experiment on HUT cancer cell line was 330 to 3300 nM; with Hela cancer cell line it was more than 3300 nM; in the experiment on U937 cancer cell line, 330 to 3300 nM; in experiment [1] it was 101 to 1000 nM.

Regarding `O=C(CCCCCCC(=O)Nc1cccc(CCN[C@H](C(=O)OC2CCCC2)c2ccccc2)c1)NO` [Compound 71, (S)-{2-[3-(7-Hydroxycarbamoyl-heptanoylamino)-phenyl]-ethylamino}-phenyl-acetic acid cyclopentyl ester], the IC50 in the experiment with HUT cancer cell line is 330 to 3300 nM; with Hela cancer cell line, 330 to 3300 nM; in the experiment with U937 cancer cell line it was less than 330 nM; in experiment [1], less than 100 nM.

On to `O=C(CCCCCCC(=O)Nc1cccc(OCCN[C@@H](Cc2ccccc2)C(=O)OC2CCCC2)c1)NO` [Compound 73, (S)-2-{2-[3-(7-Hydroxycarbamoyl-heptanoylamino)-phenoxy]-ethylamino}-3-phenyl-propionic acid cyclopentyl ester], for which the IC50 in the experiment with HUT cancer cell line was 330 to 3300 nM; in the experiment on Hela cancer cell line, 330 to 3300 nM; in the experiment on U937 cancer cell line it was less than 330 nM; in experiment [1], less than 100 nM.

Turning to `O=C(CCCCCCC(=O)Nc1cccc(OCCCN[C@@H](Cc2ccccc2)C(=O)OC2CCCC2)c1)NO` [Compound 75, (S)-2-{3-[3-(7-Hydroxycarbamoyl-heptanoylamino)-phenoxy]-propylamino}-3-phenyl-propionic acid cyclopentyl ester], the IC50 with HUT cancer cell line was less than 330 nM; in the experiment with Hela cancer cell line, 330 to 3300 nM; in the experiment on U937 cancer cell line, less than 330 nM; in experiment [1] it was less than 100 nM.

Turning to `O=C(CCCCCCC(=O)Nc1cccc(OCCCN[C@H](C(=O)OC2CCCC2)c2ccccc2)c1)NO` [Compound 77, (S)-{3-[3-(7-Hydroxycarbamoyl-heptanoylamino)-phenoxy]-propylamino}-phenyl-acetic acid cyclopentyl ester], the IC50 with HUT cancer cell line was less than 330 nM; in the experiment with Hela cancer cell line, 330 to 3300 nM; in the experiment with U937 cancer cell line, less than 330 nM; in experiment [1], less than 100 nM.
